Assay [1] concerns the target T1, HCV NS3/4A protease complex, BMS strain (UniProt P27958, species not given/STRAIN_BMS).
T1 construct: other: NS3/4A BMS strain; activity range class; numeric values, unit not given; said of H77 and J4L6S; fused on or other part: A three-lysine solubilising tail at the C-terminus of NS4A; A His tag is implied by the pET21b vector and Ni-NTA purification; Both are printed for the H77 and J4L6S constructs and apply to BMS by inference
The assay is described as follows: FRET peptide assay to monitor HCV NS3/4A proteolytic activity (BMS strain). The assay is classed as biochemical, Hepatitis C virus (genotype 1a). In outline: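 Purified recombinant NS3/4A complex from genotype 1a BMS strain, 2-3 nM final, with RET S1 EDANS/DABCYL depsipeptide substrate at 2 μM final in HEPES pH 7.5, NaCl, Triton, glycerol, βME. Cleavage followed in real time by fluorescence. For high-potency compounds: 50 μg/ml BSA added, protease lowered to 300 pM.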

The test system of assay [2] is HCV replicon (strain 1b) in HUH-7 cells. Briefly: HCV replicon FRET assay. The assay is classed as cell-based, Hepatitis C virus. For orientation: In antiviral work, replicon cells carry a viral genome segment that copies itself.
The mark [3] stands for this setting: read-out: HCV Protease (IC50); NS3/4A BMS strain; activity range class.
Setting [4] is: Hepatitis C virus, Huh-7, read-out: HCV Pro Replicon (EC50), HCV replicon cell assay, activity range class.
Where [5] appears, read: read-out: HCV Protease (IC50); NS3/4A BMS strain; numeric values, unit inferred.
Where [6] appears, read: Hepatitis C virus, Huh-7, read-out: HCV Pro Replicon (EC50), HCV replicon cell assay, numeric values, unit inferred.

Like-named read-outs stand apart in the source and are kept apart here.

T1 sequence (P27958 1027-1657, change not shown, one chain of several): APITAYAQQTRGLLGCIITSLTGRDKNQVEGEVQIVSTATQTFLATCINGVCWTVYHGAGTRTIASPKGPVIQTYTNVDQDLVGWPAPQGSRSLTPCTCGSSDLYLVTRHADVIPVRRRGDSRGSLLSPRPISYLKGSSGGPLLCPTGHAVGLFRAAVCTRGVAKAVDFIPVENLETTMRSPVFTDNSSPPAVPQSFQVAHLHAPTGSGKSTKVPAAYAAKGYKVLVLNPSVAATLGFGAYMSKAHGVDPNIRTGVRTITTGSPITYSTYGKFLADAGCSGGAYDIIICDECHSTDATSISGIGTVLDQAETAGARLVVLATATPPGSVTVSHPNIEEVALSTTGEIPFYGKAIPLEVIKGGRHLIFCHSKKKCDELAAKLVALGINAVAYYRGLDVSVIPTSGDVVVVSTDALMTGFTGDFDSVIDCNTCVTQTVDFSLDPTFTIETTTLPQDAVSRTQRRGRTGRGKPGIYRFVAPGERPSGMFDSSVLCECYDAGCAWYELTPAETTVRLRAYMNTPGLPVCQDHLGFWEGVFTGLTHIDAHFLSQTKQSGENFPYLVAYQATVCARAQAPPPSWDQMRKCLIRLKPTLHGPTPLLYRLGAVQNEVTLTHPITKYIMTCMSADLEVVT

For orientation: IC50 means the concentration that gives 50% inhibition. A word on the EC50: it is the concentration at which the effect is half-maximal. With `C=C[C@@H]1C[C@]1(NC(=O)[C@@H]1C[C@@H](Oc2nc(N(C)C)cc3cc(OC)ccc23)CN1C(=O)C(Nc1cc(C)cc(C)n1)C(C)C)C(=O)NS(=O)(=O)C1CC1` (stereo partly drawn) [Compound 17, N-(4,6-dimethyl-2-pyridinyl)valyl-(4R)—N-((1R,2S)-1-((cyclopropylsulfonyl)carbamoyl)-2-vinylcyclopropyl)-4-((3-(dimethylamino)-6-methoxy-1-isoquinolinyl)oxy)-L-prolinamide], in assay [1] (setting [3]), the IC50 fell in the range of 0.6 to 20 nM. In assay [2] (setting [4]), the EC50 is 3 to 100 nM.
In the same order, the values of `C=C[C@@H]1C[C@]1(NC(=O)[C@@H]1C[C@@H](Oc2nc(OC)cc3cc(OC)ccc23)CN1C(=O)C(Nc1cc(C)cc(C)n1)C(C)C)C(=O)NS(=O)(=O)C1CC1` (stereo partly drawn) [Compound 21, N-(4,6-dimethyl-2-pyridinyl)valyl-(4R)—N-((1R,2S)-1-((cyclopropylsulfonyl)carbamoyl)-2-vinylcyclopropyl)-4-((3,6-dimethoxy-1-isoquinolinyl)oxy)-L-prolinamide] are 0.6 to 20 nM and 3 to 100 nM.
In the same order, the values of `C=C[C@@H]1C[C@]1(NC(=O)[C@@H]1C[C@@H](Oc2ncc(OC)c3ccc(Cl)cc23)CN1C(=O)C(Nc1cc(C)c([N+](=O)[O-])cn1)C(C)(C)C)C(=O)NS(=O)(=O)C1CC1` (stereo partly drawn) [Compound 23, 3-methyl-N-(4-methyl-5-nitro-2-pyridinyl)valyl-(4R)-4-((7-chloro-4-methoxy-1-isoquinolinyl)oxy)-N-((1R,2S)-1-((cyclopropylsulfonl)carbamoyl)-2-vinylcyclopropyl)-L-prolinamide] are 0.6 to 20 nM and 3 to 100 nM.
The matching figures for `C=C[C@@H]1C[C@]1(NC(=O)[C@@H]1C[C@@H](Oc2ncc(OC)c3ccc(Cl)cc23)CN1C(=O)C(Nc1cncc(C)c1)C(C)(C)C)C(=O)NS(=O)(=O)C1CC1` (stereo partly drawn) [Compound 25, 3-methyl-N-(5-methyl-3-pyridinyl)valyl-(4R)-4-((7-chloro-4-methoxy-1-isoquinolinyl)oxy)-N-((1R,2S)-1-((cyclopropylsulfonyl)carbamoyl)-2-vinylcyclopropyl)-L-prolinamide]: 0.6 to 20 nM and 3 to 100 nM.
`C=C[C@@H]1C[C@]1(NC(=O)[C@@H]1C[C@@H](Oc2ncc(OC)c3ccc(Cl)cc23)CN1C(=O)[C@@H](Nc1cncc(Cl)c1)C(C)(C)C)C(=O)NS(=O)(=O)C1CC1` [Compound 33, N-(5-chloro-3-pyridinyl)-3-methylvalyl-(4R)-4-((7-chloro-4-methoxy-1-isoquinolinyl)oxy)-N-((1R,2S)-1-((cyclopropylsulfonyl)carbamoyl)-2-vinylcyclopropyl)-L-prolinamide]: in assay [1] (setting [5]), the IC50 came out at 2 nM. In assay [2] (setting [6]), the EC50 came to 8.19 nM.
As to `C=C[C@@H]1C[C@]1(NC(=O)[C@@H]1C[C@@H](Oc2nccc3cc(OC)ccc23)CN1C(=O)[C@@H](Nc1nc(CC)cs1)C(C)(C)C)C(=O)NS(=O)(=O)C1CC1` [Compound 35, N-(4-ethyl-1,3-thiazol-2-yl)-3-methyl-L-valyl-(4R)—N-((1R,2S)-1-((cyclopropylsulfonyl)carbamoyl)-2-vinylcyclopropyl)-4-((6-methoxy-1-isoquinolinyl)oxy)-L-prolinamide], in assay [1] (setting [3]), the IC50 was in the range of 0.6 to 20 nM. Also, the EC50 in assay [2] (setting [4]) is 3 to 100 nM.
As to `C=C[C@@H]1C[C@]1(NC(=O)[C@@H]1C[C@@H](Oc2nccc3cc(OC)ccc23)CN1C(=O)[C@@H](NC1=NCCCS1)C(C)(C)C)C(=O)NS(=O)(=O)C1CC1` [Compound 36, N-(5,6-dihydro-4H-1,3-thiazin-2-yl)-3-methyl-L-valyl-(4R)—N-((1R,2S)-1-((cyclopropylsulfonyl)carbamoyl)-2-vinylcyclopropyl)-4-((6-methoxy-1-isoquinolinyl)oxy)-L-prolinamide], in assay [1] (setting [5]), the IC50 was 73 nM. In assay [2] (setting [6]), the EC50 stood at 1420 nM.
In the case of `C=C[C@@H]1C[C@]1(NC(=O)[C@@H]1C[C@@H](Oc2nc(-c3ccc(OC(F)(F)F)cc3)cc3cc(OC)ccc23)CN1C(=O)[C@@H](NC1=NCCCS1)C(C)(C)C)C(=O)NS(=O)(=O)C1CC1` [Compound 37, N-(5,6-dihydro-4H-1,3-thiazin-2-yl)-3-methyl-L-valyl-(4R)—N-((1R,2S)-1-((cyclopropylsulfonyl)carbamoyl)-2-vinylcyclopropyl)-4-((6-methoxy-3-(4-(trifluoromethoxy)phenyl)-1-isoquinolinyl)oxy)-L-prolinamide], the IC50 in assay [1] (setting [3]) lay within 0.6 to 20 nM. Also, in assay [2] (setting [4]), the EC50 is 3 to 100 nM.
For the compound `C=CC1CC1(NC(=O)C1CC(Oc2ncc(OC)c3ccc(Cl)cc23)CN1C(=O)C(Nc1cccc(F)c1)C(C)(C)C)C(=O)NS(=O)(=O)C1CC1` (stereo not drawn) [Compound 200B], the IC50 in assay [1] (setting [5]) is 160 nM. For the same compound, the EC50 in assay [2] (setting [6]) was 195 nM.
With `C=C[C@@H]1C[C@]1(NC(=O)[C@@H]1C[C@@H](Oc2ncc(OC)c3ccc(Cl)cc23)CN1C(=O)C(Nc1cccc(C(=O)NC)c1)C(C)(C)C)C(=O)NS(=O)(=O)C1CC1` (stereo partly drawn) [Compound 202A], in assay [1] (setting [3]), the IC50 lay in the range of 0.6 to 20 nM. The EC50 in assay [2] (setting [4]) was in the range of 3 to 100 nM.
Turning to `C=C[C@@H]1C[C@]1(NC(=O)[C@@H]1C[C@@H](Oc2ncc(OC)c3ccc(Cl)cc23)CN1C(=O)C(Nc1cccc(C#N)c1)C(C)(C)C)C(=O)NS(=O)(=O)C1CC1` (stereo partly drawn) [Compound 203A], in assay [1] (setting [5]), the IC50 was found to be 4 nM. Further, the EC50 in assay [2] (setting [6]) was determined as 1.54 nM.
`C=C[C@@H]1C[C@]1(NC(=O)[C@@H]1C[C@@H](Oc2ncc(OC)c3ccc(Cl)cc23)CN1C(=O)[C@@H](Nc1ccc(S(N)(=O)=O)cc1)C(C)(C)C)C(=O)NS(=O)(=O)C1CC1` [Compound 215A, 3-methyl-N-(4-sulfamoylphenyl)-L-valyl-(4R)-4-((7-chloro-4-methoxy-1-isoquinolinyl)oxy)-N-((1R,2S)-1-((cyclopropylsulfonyl)carbamoyl)-2-vinylcyclopropyl)-L-prolinamide]: the IC50 in assay [1] (setting [3]) fell in the range of 0.6 to 20 nM. Further, the EC50 in assay [2] (setting [4]) was 3 to 100 nM.
Turning to `C=C[C@@H]1C[C@]1(NC(=O)[C@@H]1C[C@@H](Oc2ncc(OC)c3ccc(Cl)cc23)CN1C(=O)[C@H](Nc1ccc(S(N)(=O)=O)cc1)C(C)(C)C)C(=O)NS(=O)(=O)C1CC1` [Compound 215B, 3-methyl-N-(4-sulfamoylphenyl)-D-valyl-(4R)-4-((7-chloro-4-methoxy-1-isoquinolinyl)oxy)-N-((1R,2S)-1-((cyclopropylsulfonyl)carbamoyl)-2-vinylcyclopropyl)-L-prolinamide], the IC50 in assay [1] (setting [5]) was 830 nM. Further, in assay [2] (setting [6]), the EC50 was determined as 5490 nM.
With `C=C[C@@H]1C[C@]1(NC(=O)[C@@H]1C[C@@H](Oc2ncc(OC)c3ccc(Cl)cc23)CN1C(=O)[C@@H](Nc1ccc(C(=O)NC(C)(C)c2ccccc2)cc1)C(C)(C)C)C(=O)NS(=O)(=O)C1CC1` [Compound 222A, 3-methyl-N-(4-((1-methyl-1-phenylethyl)carbamoyl)phenyl)-L-valyl-(4R)-4-((7-chloro-4-methoxy-1-isoquinolinyl)oxy)-N-((1R2S)-1-((cyclopropylsulfonl)carbamoyl)-2-vinylcyclopropyl)-L-prolinamide], in assay [1] (NS3/4A BMS strain; activity range class; read-out: HCV Protease (IC50)), the IC50 fell in the range of 0.6 to 20 nM. Further, the EC50 in assay [2] (HCV replicon cell assay, activity range class, read-out: HCV Pro Replicon (EC50)) is 3 to 100 nM.
Take `C=C[C@@H]1C[C@]1(NC(=O)[C@@H]1C[C@@H](Oc2ncc(OC)c3ccc(Cl)cc23)CN1C(=O)[C@H](CC)Nc1nsnc1OCC)C(=O)NS(=O)(=O)C1CC1` [Compound 233A, (4R)-4-((7-chloro-4-methoxy-1-isoquinolinyl)oxy)-N-((1R,2S)-1-((cyclopropylsulfonyl)carbamoyl)-2-vinylcyclopropyl)-1-((2S)-2-((4-ethoxy-1,2,5-thiadiazol-3-yl)amino)butanoyl)-L-prolinamide]: the IC50 in assay [1] (setting [3]) fell in the range of 20 to 200 nM. Besides, the EC50 in assay [2] (setting [4]) is 100 to 1000 nM.
